Source: US20080207593A1, “Antihistamine Combination” (Collegium Pharmaceutical, Inc., priority 2007, published 2008)
Structures can show the parent of a compound that is named as a salt.

Assays:
allergic rhinitis = conditions: cited from earlier work
[1] = test system: seasonal allergic rhinitis; conditions: cited from earlier work
[2] = test system: seasonal allergic rhinitis nasal symptoms (rhinorrhea, nasal itching, sneezing); assay: Proof of concept clinical study: Total Nasal Symptom Score (TNSS); format: in vivo, human; conditions: TNSS > 4.7 subgroup
Protocol: An open-label, placebo-controlled parallel-group comparison study was conducted. The protocol used was a 1 week run-in period, with daily placebo (PLC) for all groups, and a second 2 week period for treatment. Study participants were randomized to receive at bedtime (10 pm) during the treatment period, one of the following: PLC only; Immediate Release LOR 10 mg, or Immediate Release CHL 4 mg/Immediate Release LOR 10 mg. Commercially available IR tablets of CHL and LOR were packaged into capsules and used in this study. Participants filled out patient diaries in the morning (8 am) and evening (10 pm, prior to dosing). Reflective and Instantaneous TNSSs were recorded daily. Pittsburgh Sleep Quality Index (PSQI) was scored at the end of the study.
Each symptom (rhinorrhea, nasal itching, sneezing) was scored on the following scale (Max Score=9):
0=absent symptoms (no sign/symptom evident);
1=mild symptoms (signs or symptoms clearly present but with minimal awareness, and easily tolerated);
2=moderate symptoms (definite awareness of signs or symptoms that are bothersome but tolerable); or
3=Severe symptoms (signs or symptoms that are hard to tolerate and cause interference with activities of daily living and/or sleeping).
At each time point (at 8 AM and 10 PM), symptoms were scored for Instantaneous and Reflective scores.
Inclusion criteria: male/female 18-60 years, history of seasonal allergic rhinitis for at least two years, sensitivity to ragweed or locally prevalent allergen, immunotherapy at stable dose, AM Reflective TNSS=3 on at least 5 out of 7 consecutive days during run-in.
Exclusion criteria: subjects with asthma other than mild intermittent asthma, use of antihistamines, other than study medication; use of systemic or topical corticosteroids, use of decongestants or antihistamines within 3 days of Visit 1, nasal cromolyn within 2 weeks of Visit 1, nasal or systemic corticosteroids within 28 days of Visit 1, loratadine within 10 days of Visit 1, history of sleep abnormalities, sinusitis, use of medications causing drowsiness/interfere with sleep, subjects with a known history of alcohol or drug abuse, and other standard exclusions.
2.3 Study Sites. The Study was conducted in Newport News, Va. (20 subjects), Richmond, Va. (20 subjects), New Braunfels, Tex. (25 subjects), San Antonio, Tex. (9 subjects).

[3] = test system: seasonal allergic rhinitis; conditions: 4 mg three times per day (12 mg daily) for seven days; cited from earlier work
[4] = Baseline (1 week placebo run-in)
[5] = Change from Baseline to End-of-Treatment
[6] = End-of-Treatment, bedtime dosing

Q: Which results are given for `CCOC(=O)N1CCC(=C2c3ccc(Cl)cc3CCc3cccnc32)CC1` [Loratadine]?
A: 24 hour efficacy (allergic rhinitis; 10 mg once a day): lack of 24 hour efficacy; patients with significant sedation (allergic rhinitis; loratadine 40 mg once daily): 34.3%; nocturnal symptoms ([1]; 10 mg QD for four weeks): did not show any improvement; symptom scores ([1]; 10 mg QD, first two week period and four week study overall): statistically significant reduction; AM TNSS Instantaneous Score, Max [2, 4]: 7.71; AM TNSS Instantaneous Score, Mean [2, 4]: 5.58; AM TNSS Instantaneous Score, Median [2, 4]: 5.43; AM TNSS Instantaneous Score, Min [2, 4]: 3.71; AM TNSS Reflective Score, Max [2, 4]: 8.14; AM TNSS Reflective Score, Mean [2, 4]: 5.91; AM TNSS Reflective Score, Median [2, 4]: 5.07; AM TNSS Reflective Score, Min [2, 4]: 5.00; PM TNSS Instantaneous Score, Max [2, 4]: 8.83; PM TNSS Instantaneous Score, Mean [2, 4]: 5.70; PM TNSS Instantaneous Score, Median [2, 4]: 5.21; PM TNSS Instantaneous Score, Min [2, 4]: 3.86; PM TNSS Reflective Score, Max [2, 4]: 8.50; PM TNSS Reflective Score, Mean [2, 4]: 6.10; PM TNSS Reflective Score, Median [2, 4]: 5.59; PM TNSS Reflective Score, Min [2, 4]: 4.57; PM TNSS Reflective Score, Change, Max [2, 5]: 1.21; PM TNSS Reflective Score, Change, Mean [2, 5]: −0.92; PM TNSS Reflective Score, Change, Median [2, 5]: −0.21; PM TNSS Reflective Score, Change, Min [2, 5]: −3.45; AM TNSS Instantaneous Score, Change, Max ([2]; Change from Baseline to Week 2): 1.21; AM TNSS Instantaneous Score, Change, Mean ([2]; Change from Baseline to Week 2): −0.74; AM TNSS Instantaneous Score, Change, Median ([2]; Change from Baseline to Week 2): −0.83; AM TNSS Instantaneous Score, Change, Min ([2]; Change from Baseline to Week 2): −2.62; AM TNSS Reflective Score, Change, Max ([2]; Change from Baseline to Week 2): 1.29; AM TNSS Reflective Score, Change, Mean ([2]; Change from Baseline to Week 2): −0.82; AM TNSS Reflective Score, Change, Median ([2]; Change from Baseline to Week 2): −0.52; AM TNSS Reflective Score, Change, Min ([2]; Change from Baseline to Week 2): −2.79; PM TNSS Instantaneous Score, Change, Max ([2]; Change from Baseline to Week 2): 1.00; PM TNSS Instantaneous Score, Change, Mean ([2]; Change from Baseline to Week 2): −0.81; PM TNSS Instantaneous Score, Change, Median ([2]; Change from Baseline to Week 2): −0.21; PM TNSS Instantaneous Score, Change, Min ([2]; Change from Baseline to Week 2): −3.45; PM TNSS Reflective Score, Max [2, 6]: 7.71; PM TNSS Reflective Score, Mean [2, 6]: 5.18; PM TNSS Reflective Score, Median [2, 6]: 5.29; PM TNSS Reflective Score, Min [2, 6]: 2.14; AM TNSS Instantaneous Score, Max ([2]; Week 2, bedtime dosing): 7.36; AM TNSS Instantaneous Score, Mean ([2]; Week 2, bedtime dosing): 4.83; AM TNSS Instantaneous Score, Median ([2]; Week 2, bedtime dosing): 5.16; AM TNSS Instantaneous Score, Min ([2]; Week 2, bedtime dosing): 2.14; AM TNSS Reflective Score, Max ([2]; Week 2, bedtime dosing): 7.43; AM TNSS Reflective Score, Mean ([2]; Week 2, bedtime dosing): 5.08; AM TNSS Reflective Score, Median ([2]; Week 2, bedtime dosing): 5.13; AM TNSS Reflective Score, Min ([2]; Week 2, bedtime dosing): 2.21; PM TNSS Instantaneous Score, Max ([2]; Week 2, bedtime dosing): 7.21; PM TNSS Instantaneous Score, Mean ([2]; Week 2, bedtime dosing): 4.89; PM TNSS Instantaneous Score, Median ([2]; Week 2, bedtime dosing): 5.32; PM TNSS Instantaneous Score, Min ([2]; Week 2, bedtime dosing): 2.15

Q: Which results are given for `CN(C)CCC(c1ccc(Cl)cc1)c1ccccn1` (stereo not drawn) [chlorpheniramine, Chlorpheniramine maleate]?
A: patients reporting moderate or complete relief [3]: 60%; patients reporting sedation [3]: 19%
